This test concerns HEK293 cells. In words: CNP-Fc ELISA of supernatant of AAV-transduced HEK293 cells. It is filed as cell-based, Human. How it is done: C-type natriuretic peptide (CNP) has two isoforms, CNP-22 and CNP-53. Example 2 illustrates that CNP-36 fused with Fe increased the half-life of the CNP and also facilitated in purification and ELISA detection when compared to native (unfused) CNP. Transduction and CNP-Fc expression experiments were performed with three AAV vectors (AMI061, AMI087 and AMI0488). FIG. 1A is the pictorial depiction of the three vectors. FIGS. 1B-F illustrate additional vectors that can encode the CNP or the CNP fusion protein. Enzyme-linked immunoassay (ELISA) was developed for quantifying CNP-Fc fusion proteins in cell culture supernatants. The ELISA assay was used to quantify CNP-Fc expressed in HEK293 cells, human chondrocytes (HCH) cells, and human skeletal muscle cells (hSkMC) upon transduction with one of the three AAV constructs described herein.
Buffer and substrate. Coating buffer: 3.7 g sodium bicarbonate, 0.64 g sodium carbonate in 1 L of Milli Q water, pH 9.6. Stored at RT; Blocking buffer: Commercial Casein blocking buffer in PBS+ added 0.1% Tween20. Stored at 4° C.; Standard diluent: same as blocking buffer; Wash buffer: 1×PBS with 0.1% tween 20 (30 days expiry from date of manufacture); Coating Antibody (Ab): Human CNP Antibody (monoclonal), coating concentration was 2 μg/mL; Detection Ab: Goat pAb anti-human Fc. Diluted up to 1:20,000 final dilution in well. Stored at 4° C.; HRP: Streptavidin-HRP stock of 1 mg/mL, diluted up to 1:10,000. Stored at 4° C.; Substrate: TMB. Stored at 4° C.; and Stop solution: 2 N HCl. Stored at ambient temperature.
• 1. Coat 96-well plate with 2 μg/mL anti-CNP antibody final concentration per well in the coating buffer with a 50 μL volume and cover the plate with sealing cover. Put the plate at 4° C. overnight. • 2. Next day, remove the plate, wash thrice with wash buffer and tap the plate on the paper towel to remove excess solution. • 3. Add 300 μL of blocking buffer to each well using multichannel pipette. […] Add 50 μL stop solution and read plate at 450 nm with 600 as reference within 15 min. […]
(ELISA stands for enzyme-linked immunosorbent assay.)

For the substance “AMI088: purified fusion protein Fc1-(G4S)4-CNP36 (IgG1 Fc), SEQ ID NO: 133”, the “Concentration” value (CNP-Fc in HEK293 supernatant 5 days after transduction with 100,000 MOI of AAV2 N54 vector) was found to be 75 µg/mL. Moreover, the “CNP-Fc expression compared to other CNP constructs” value (HEK293 supernatant, 100,000 MOI, 5 days) was “highest expression”.

The values are drawn from patent US20250099622A1, “COMPOSITIONS AND METHODS FOR EXPRESSING THERAPEUTICS” (priority 2022, published 2025).
